Assay results reported in the supplement of paper PMC5908809.

How the values were obtained:
Assay in all cases: relative IC50 (inflection point of fitted viability curve, relative to fitted max inhibition); higher = less sensitive
Conditions in all cases: 72 h
[1] = test system: DERL-7 (IL-2 2.5 ng/mL)
Method: (§1)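 Drug sensitivity and resistance testing: 5 concentrations over a 10,000-fold range, 72 h at 37 °C, viability by CellTiter-Glo normalised to DMSO and benzethonium chloride controls. IC50 is the inflection point of a logistic fit (min fixed at 0, max fitted), so it is relative to the fitted maximal inhibition. Kept only where fitted max inhibition is at least 50%.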

[2] = test system: NK-YS (IL-2 2.5 ng/mL)
Method: as §1

[3] = test system: IMC-1 (IL-2 20 ng/mL)
Method: as §1

[4] = test system: KAI3 (IL-2 2.5 ng/mL)
Method: as §1

[5] = test system: KHYG-1 (IL-2 2.5 ng/mL)
Method: as §1

[6] = test system: NK-92 (IL-2 2.5 ng/mL)
Method: as §1

[7] = test system: NKL (IL-2 2.5 ng/mL)
Method: as §1

[8] = test system: SNK-6 (IL-2 2.5 ng/mL)
Method: as §1

[9] = test system: YT (IL-2 2.5 ng/mL)
Method: as §1

[10] = test system: normal primary NK cells, pool 1 (3 donors), resting (IL-2 0 ng/mL)
Method: as §1

[11] = test system: normal primary NK cells, pool 2 (3 donors) (IL-2 2.5 ng/mL)
Method: as §1

[12] = test system: normal primary NK cells, pool 3 (3 donors) (IL-2 2.5 ng/mL)
Method: as §1

[13] = test system: normal primary NK cells, pool 1 (3 donors) (IL-2 2.5 ng/mL)
Method: as §1

SMILES: COc1cc2c(Oc3ccc(NC(=O)C4(C(=O)Nc5ccc(F)cc5)CC4)cc3F)ccnc2cc1OCCCN1CCOCC1 [Foretinib]
- relative IC50 [1]: 369 nM
- relative IC50 [2]: 191 nM

SMILES: CO[C@@]12[C@H](COC(N)=O)C3=C(C(=O)C(C)=C(N)C3=O)N1C[C@@H]1N[C@@H]12 [Mitomycin C]
- relative IC50 [3]: 2710 nM
- relative IC50 [4]: 1060 nM
- relative IC50 [5]: 432 nM
- relative IC50 [6]: 1510 nM
- relative IC50 [2]: 350 nM
- relative IC50 [7]: 152 nM
- relative IC50 [8]: 423 nM
- relative IC50 [9]: 3200 nM
- relative IC50 [10]: 1630 nM
- relative IC50 [11]: 1010 nM
- relative IC50 [12]: 1410 nM

SMILES: N.N.[Cl][Pt][Cl] [Cisplatin]
- relative IC50 [3]: 515 nM
- relative IC50 [11]: 14800 nM
- relative IC50 [12]: 15600 nM

SMILES: CCNC(=O)CCC/C=C\C[C@@H]1[C@@H](/C=C/[C@@H](O)CCc2ccccc2)[C@H](O)C[C@@H]1O [Bimatoprost]
- relative IC50 [1]: > 5500 nM
- relative IC50 [3]: > 5500 nM
- relative IC50 [4]: > 5500 nM
- relative IC50 [5]: > 5500 nM
- relative IC50 [6]: > 5500 nM
- relative IC50 [2]: > 5500 nM
- relative IC50 [9]: > 5500 nM
- relative IC50 [11]: > 5500 nM
- relative IC50 [12]: > 5500 nM

SMILES: CO[C@H]1C[C@@H]2CC[C@@H](C)[C@@](O)(O2)C(=O)C(=O)N2CCCC[C@H]2C(=O)O[C@H]([C@H](C)C[C@@H]2CC[C@@H](O)[C@H](OC)C2)CC(=O)[C@H](C)/C=C(\C)[C@@H](O)[C@@H](OC)C(=O)[C@H](C)C[C@H](C)/C=C/C=C/C=C/1C [Sirolimus]
- relative IC50 [1]: 5 nM
- relative IC50 [4]: 2.41 nM
- relative IC50 [5]: 6.55 nM
- relative IC50 [2]: 1.01 nM
- relative IC50 [7]: 0.3 nM
- relative IC50 [8]: 0.8 nM

SMILES: C[C@]12C=CC(=O)C=C1CC[C@@H]1[C@@H]2C(=O)C[C@@]2(C)[C@H]1CC[C@]2(O)C(=O)CO [Prednisone]
- relative IC50 [11]: > 10000 nM

SMILES: COc1ccc(-c2ccc3c(N4CCOC[C@@H]4C)nc(N4CCOC[C@@H]4C)nc3n2)cc1CO [AZD8055]
- relative IC50 [1]: 21.7 nM
- relative IC50 [4]: 10.3 nM
- relative IC50 [5]: 135 nM
- relative IC50 [6]: 121 nM
- relative IC50 [2]: 77.3 nM
- relative IC50 [7]: 5.08 nM
- relative IC50 [8]: 16.3 nM
- relative IC50 [9]: 55.6 nM

SMILES: Nc1cccc2c1CN(C1CCC(=O)NC1=O)C2=O (stereo not drawn) [Lenalidomide]
- relative IC50 [1]: > 100000 nM
- relative IC50 [4]: 17100 nM
- relative IC50 [8]: 3460 nM
- relative IC50 [10]: 6060 nM

SMILES: Cc1ccc(C(=O)N(CCCN)[C@@H](c2oc3cc(Cl)ccc3c(=O)c2Cc2ccccc2)C(C)C)cc1
- relative IC50 [1]: 21.8 nM
- relative IC50 [3]: 3.17 nM
- relative IC50 [4]: 10.9 nM
- relative IC50 [5]: 3.04 nM
- relative IC50 [6]: 20.9 nM
- relative IC50 [2]: 3.75 nM
- relative IC50 [7]: 5.2 nM
- relative IC50 [8]: 4.13 nM
- relative IC50 [9]: 24.2 nM

SMILES: CCn1nnc2c(N3CCOCC3)nc(-c3ccc(NC(=O)Nc4ccc(C(=O)N5CCN(C)CC5)cc4)cc3)nc21 [PKI-402]
- relative IC50 [1]: 89.1 nM
- relative IC50 [4]: 90.9 nM
- relative IC50 [5]: 316 nM
- relative IC50 [6]: 428 nM
- relative IC50 [2]: 154 nM
- relative IC50 [7]: 97.1 nM
- relative IC50 [8]: 210 nM
- relative IC50 [9]: 208 nM

SMILES: CN1CCc2c(c3ccccc3n2Cc2ccc(C(=O)NO)cc2)C1 [Tubastatin A]
- relative IC50 [1]: 3400 nM
- relative IC50 [3]: 3270 nM
- relative IC50 [4]: 1170 nM
- relative IC50 [5]: 2550 nM
- relative IC50 [6]: 1580 nM
- relative IC50 [2]: 1810 nM
- relative IC50 [7]: 1030 nM
- relative IC50 [8]: 1430 nM
- relative IC50 [9]: 2420 nM
- relative IC50 [13]: 1790 nM
- relative IC50 [10]: 1510 nM

SMILES: Cc1cc(Nc2cc(N3CCN(C)CC3)nc(Sc3ccc(NC(=O)C4CC4)cc3)n2)n[nH]1 [Tozasertib]
- relative IC50 [1]: 46.3 nM
- relative IC50 [3]: 283 nM
- relative IC50 [4]: 349 nM
- relative IC50 [5]: 193 nM
- relative IC50 [6]: 636 nM
- relative IC50 [2]: 51 nM
- relative IC50 [8]: 50.2 nM

SMILES: O=C(NOCC1CC1)c1ccc(F)c(F)c1Nc1ccc(I)cc1Cl
- relative IC50 [1]: 1310 nM
- relative IC50 [3]: 2220 nM
- relative IC50 [4]: 608 nM
- relative IC50 [5]: 851 nM
- relative IC50 [6]: 3220 nM
- relative IC50 [2]: 1650 nM
- relative IC50 [7]: 153 nM
- relative IC50 [8]: 3940 nM
- relative IC50 [9]: 1850 nM
